US9718804B2, “GSK-3 inhibitors” (BRISTOL-MYERS SQUIBB COMPANY, priority 2013, dated 2017)
Read-outs that look alike come from different tables or passages of the source.

Experiments:
GSK3β = GSK3β (Homo sapiens, UniProt P49841); assay: GSK3β kinase assay (Caliper LabChip, fluoresceinated peptide substrate); assay type: biochemical
How it was run: (§1)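 Reactions run 20 hours at room temperature, stopped with EDTA. Phosphorylated and unphosphorylated fluoresceinated peptide separated electrophoretically on Caliper LabChip3000. Eleven compound concentrations tested; IC50 by non-linear regression.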

GSK3α = GSK3α (Homo sapiens, UniProt P49840); assay: GSK3α kinase assay (Caliper LabChip, fluoresceinated peptide substrate); assay type: biochemical
How it was run: as §1

pTau = pTau assay (no method described); assay type: cell-based
[1] = first value of the cell, 250 pM enzyme, 20 uM ATP, 20 hours at room temperature, read-out: GSK3β/α (nM): GSK3β IC50

Sequence of GSK3α (P49840 whole entry, species assumed): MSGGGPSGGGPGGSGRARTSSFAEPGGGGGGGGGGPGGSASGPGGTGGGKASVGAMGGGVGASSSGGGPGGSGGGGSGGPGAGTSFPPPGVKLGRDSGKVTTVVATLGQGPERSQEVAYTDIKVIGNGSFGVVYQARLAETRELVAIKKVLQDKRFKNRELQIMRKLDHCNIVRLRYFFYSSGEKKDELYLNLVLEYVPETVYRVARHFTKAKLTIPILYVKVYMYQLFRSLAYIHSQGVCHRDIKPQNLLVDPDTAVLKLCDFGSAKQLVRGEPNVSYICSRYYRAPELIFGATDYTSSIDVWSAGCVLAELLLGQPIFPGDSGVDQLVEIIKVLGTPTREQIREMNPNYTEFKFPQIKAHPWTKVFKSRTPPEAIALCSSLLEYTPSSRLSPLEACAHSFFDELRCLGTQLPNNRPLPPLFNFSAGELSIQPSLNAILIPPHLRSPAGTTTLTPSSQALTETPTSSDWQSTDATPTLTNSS
Sequence of GSK3β (P49841 whole entry, species assumed): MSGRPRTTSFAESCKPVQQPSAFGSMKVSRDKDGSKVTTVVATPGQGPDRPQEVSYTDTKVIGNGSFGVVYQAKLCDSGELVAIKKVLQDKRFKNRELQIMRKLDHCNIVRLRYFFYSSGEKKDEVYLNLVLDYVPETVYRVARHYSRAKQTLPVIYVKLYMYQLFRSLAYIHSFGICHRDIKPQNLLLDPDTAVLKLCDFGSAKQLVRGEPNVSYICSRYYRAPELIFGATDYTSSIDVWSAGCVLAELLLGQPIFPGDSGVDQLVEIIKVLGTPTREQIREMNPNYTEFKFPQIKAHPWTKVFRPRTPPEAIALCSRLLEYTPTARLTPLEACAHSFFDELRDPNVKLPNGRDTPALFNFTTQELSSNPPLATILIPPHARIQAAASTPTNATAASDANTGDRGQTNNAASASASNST

Compound: O=C(Nc1cncc(-c2cc(F)ccc2F)c1)c1ccnc(Nc2ccc(C(F)(F)F)cn2)c1 [Example 129, N-(5-(2,5-Difluorophenyl)pyridin-3-yl)-2-((5-(trifluoromethyl)pyridin-2-yl)amino)isonicotinamide]
- IC50 (GSK3β; [1]): 18 nM
- IC50 (GSK3α): 9.8 nM
- IC50 (pTau): 2100 nM

Compound: O=C(Nc1cnccc1S(=O)(=O)c1ccccc1)c1ccnc(Nc2ccc(C(F)(F)F)cn2)c1 [Example 183, N-(4-(Phenylsulfonyl)pyridin-3-yl)-2-((5-(trifluoromethyl)pyridin-2-yl)amino)isonicotinamide]
- IC50 (GSK3β; [1]): 2.2 nM
- IC50 (GSK3α): 0.75 nM
- IC50 (pTau): 200 nM

Compound: O=C(Nc1cnccc1C1=CCOCC1)c1ccnc(Nc2ccc(C(F)(F)F)cn2)c1 [Example 32, N-(4-(3,6-Dihydro-2H-pyran-4-yl)pyridin-3-yl)-2-((5-(trifluoromethyl)pyridin-2-yl)amino)isonicotinamide]
- IC50 (GSK3β; [1]): 2.3 nM
- IC50 (GSK3α): 0.78 nM
- IC50 (pTau): 71 nM

Compound: N#Cc1ccc(Nc2cc(C(=O)Nc3cnccc3N3CCCCC3)ccn2)nc1 [Example 27, 2-((5-Cyanopyridin-2-yl)amino)-N-(4-(piperidin-1-yl)pyridin-3-yl)isonicotinamide]
- IC50 (GSK3β; [1]): 0.42 nM
- IC50 (GSK3α): 0.18 nM
- IC50 (pTau): 5.2 nM

Compound: CC(C)(C)S(=O)(=O)c1ccncc1NC(=O)c1ccnc(Nc2ccc(C(F)(F)F)cn2)c1 [Example 187, N-(4-(tert-butylsulfonyl)pyridin-3-yl)-2-((5-(trifluoromethyl)pyridin-2-yl)amino)isonicotinamide]
- IC50 (GSK3β; [1]): 0.4 nM
- IC50 (GSK3α): 0.07 nM
- IC50 (pTau): 1.1 nM

Compound: O=C(Nc1cnccc1N1CCCCC1)c1ccnc(Nc2ccc(C(F)(F)F)cn2)c1 [Example 23, N-(4-(Piperidin-1-yl)pyridin-3-yl)-2-((5-(trifluoromethyl)pyridin-2-yl)amino)isonicotinamide]
- IC50 (GSK3β; [1]): 0.24 nM
- IC50 (GSK3α): 0.15 nM
- IC50 (pTau): 6.5 nM

Compound: CC(=O)c1ccc(Nc2cc(C(=O)Nc3cncc(-c4ccccc4F)c3)ccn2)nc1 [Example 158, 2-((5-Acetylpyridin-2-yl)amino)-N-(5-(2-fluorophenyl)pyridin-3-yl)isonicotinamide]
- IC50 (GSK3β; [1]): 6 nM
- IC50 (GSK3α): 3 nM
- IC50 (pTau): 690 nM

Compound: CC1(C)CN(c2ccncc2NC(=O)c2ccnc(Nc3ccc(C#N)cn3)c2)CCO1 [Example 28, 2-((5-Cyanopyridin-2-yl)amino)-N-(4-(2,2-dimethylmorpholino)pyridin-3-yl)isonicotinamide]
- IC50 (GSK3β; [1]): 0.55 nM
- IC50 (GSK3α): 0.37 nM
- IC50 (pTau): 16 nM

Compound: CCCS(=O)(=O)c1ccncc1NC(=O)c1ccnc(Nc2ccc(C(F)(F)F)cn2)c1 [Example 182, N-(4-(Propylsulfonyl)pyridin-3-yl)-2-((5-(trifluoromethyl)pyridin-2-yl)amino)isonicotinamide]
- IC50 (GSK3β; [1]): 5.2 nM
- IC50 (GSK3α): 2.1 nM
- IC50 (pTau): 15 nM

Compound: O=C(Nc1cncc(OCC(F)(F)F)c1)c1ccnc(Nc2cccc(C(F)(F)F)n2)c1 [Example 123, N-(5-(2,2,2-Trifluoroethoxy)pyridin-3-yl)-2-((6-(trifluoromethyl)pyridin-2-yl)amino)isonicotinamide]
- IC50 (GSK3β): 7.4 nM
- IC50 (GSK3α): 3.2 nM
- IC50 (pTau): 520 nM

Compound: O=C(Nc1cnc(Cl)cc1C(O)(C1CC1)C1CC1)c1ccnc(Nc2ccc(C(F)(F)F)cn2)c1 [Example 99, N-(6-Chloro-4-(dicyclopropyl(hydroxy)methyl)pyridin-3-yl)-2-((5-(trifluoromethyl)pyridin-2-yl)amino)isonicotinamide]
- IC50 (GSK3β; [1]): 6.4 nM
- IC50 (GSK3α): 4.6 nM
- IC50 (pTau): 430 nM

Compound: CC(C)(C#N)c1ccc(Nc2cc(C(=O)Nc3cnccc3-c3ccccc3)ccn2)nc1 [Example 61, 2-((5-(2-Cyanopropan-2-yl)pyridin-2-yl)amino)-N-(4-phenylpyridin-3-yl)isonicotinamide]
- IC50 (GSK3β; [1]): 1.5 nM
- IC50 (GSK3α): 0.54 nM
- IC50 (pTau): 150 nM
